Test system: Meloidogyne incognita
Assay: 96-well microplate bioassay of nematicidal activity of culture filtrates on Meloidogyne spp. larva suspension
Details: 1 μg/mL, control drug, after 3 days
Procedure: To select filamentous fungi having an excellent nematicidal activity, the present inventors have received 61 culture filtrates of filamentous fungi to screen their nematicidal activities. Specifically, roots of a tomato plant infected with Meloidogyne spp. were washed with running water to remove foreign substances. Thereafter, the well-washed roots were cut into pieces at intervals of 1 cm or less, and put into a blender. Then, a 0.5% sodium hypochlorite solution was added at such an amount that the roots were immersed, and the roots were ground for one minute. Subsequently, the ground roots were filtered through a 65 μm sieve to remove root debris, and the eggs passed through the sieve were collected through a 25 μm sieve, and then washed with sterilized water several times. A concentration of the collected Meloidogyne spp. eggs was measured using a stereoscopic microscope.
The nematicidal activities of the culture filtrates of the 61 fungi were screened using a 96-well microplate bioassay. 45 μL of a Meloidogyne spp. larva suspension, which includes approximately 50 larvae, was added to each of holes, and then treated with a 10% culture filtrate. After 3 days of the sample treatment, the nematicidal activity was determined using the following equation. […]

abamectin
nematicidal activity: 95%

Source: patent US20220119761A1, “ASPERGILLUS NIGER F22 STRAIN HAVING NEMATICIDAL ACTIVITY AGAINST PLANT-PARASITIC NEMATODES, AND USE THEREOF” (INDUSTRY FOUNDATION OF CHONNAM NATIONAL UNIVERSITY, priority 2015, published 2022)
